Measurements from patent US10213375B2, “Cosmetic or dermatological compositions combining cosmetiques retinaldehyde and glycylglycine oleamide and the cosmetic or dermatological uses thereof” (PIERRE FABRE DERMO-COSMETIQUE, priority 2013, dated 2019).
Where a SMILES comes first, the peptide text is derived from it.

How the values were obtained:
keratinocytes A431 = assay: Modulation of retinylic esters induced by retinoids in keratinocytes (HPLC); format: cell-based; conditions: for Retinol / Retinylic esters: incubation 24 to 72 h, averaged values; for Total: retinol plus retinylic esters
Description: The study was carried out on keratinocytes A431 in a culture. Indeed, in these cells, no endogenous retinoid was measured. A retinoid has to be applied beforehand in order to measure cell retinoids. The retinoids were measured by HPLC. The incubation in the presence of various agents or combination of agents dissolved in 1% of ethanol in the culture medium, was carried out for 24 to 72 h. These are averaged values expressed in pmol/mg of protein.

epidermal retinoids = conditions: hairless mice, topical 0.05% for 7 days, then UVB 1 J/cm^2, cited from earlier work; for Prevention of photo-induced depletion of epidermal retinylic esters / retinoids: assayed 24 h after radiation
[1] = tested on: CD44 and hyaluronate in follicular and interfollicular epidermis; conditions: topical application, mice; cited from earlier work
glucocerebrosidase = target: T1, glucocerebrosidase (Homo sapiens, UniProt P04062); conditions: compared with reference 4-methylumbelliferyl glucopyranoside; cited from earlier work
T1 sequence (P04062 40-536): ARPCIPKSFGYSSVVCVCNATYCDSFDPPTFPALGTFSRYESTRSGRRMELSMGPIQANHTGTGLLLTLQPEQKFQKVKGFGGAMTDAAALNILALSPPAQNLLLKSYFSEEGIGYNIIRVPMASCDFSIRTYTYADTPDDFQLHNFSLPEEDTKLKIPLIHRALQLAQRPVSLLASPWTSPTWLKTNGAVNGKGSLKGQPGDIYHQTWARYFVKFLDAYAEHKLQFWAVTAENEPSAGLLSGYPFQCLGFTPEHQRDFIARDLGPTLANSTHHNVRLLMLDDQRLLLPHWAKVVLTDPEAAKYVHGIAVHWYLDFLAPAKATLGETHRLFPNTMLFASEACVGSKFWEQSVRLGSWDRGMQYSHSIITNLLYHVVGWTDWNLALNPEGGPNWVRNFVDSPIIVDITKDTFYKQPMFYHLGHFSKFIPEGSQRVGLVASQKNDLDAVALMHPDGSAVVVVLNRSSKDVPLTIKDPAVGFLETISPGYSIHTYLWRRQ

Molecule | Retinol (keratinocytes A431; agent 15 μM in 1% ethanol) | Retinylic esters (keratinocytes A431; agent 15 μM in 1% ethanol) | Total (keratinocytes A431; agent 15 μM) | Induction / modulation of retinylic esters and cell retinoids in keratinocytes (in words) (keratinocytes A431) | also measured
NCC(=O)NCC(=O)O [GG, glycylglycine] (H-Gly-Gly-OH) | <10 pmol/mg of protein | <10 pmol/mg of protein | <10 pmol/mg of protein |  | 
CCCCCCCC/C=C\CCCCCCCC(=O)O [OA, oleic acid] | <10 pmol/mg of protein | <10 pmol/mg of protein | <10 pmol/mg of protein |  | 
CC1=C(/C=C/C(C)=C/C=C/C(C)=C/C=O)C(C)(C)CCC1 [RAL, retinaldehyde] |  |  |  | induces a series of retinylic esters | Prevention of photo-induced depletion of epidermal retinylic esters / retinoids (epidermal retinoids): prevent photo-induced depletion of epidermal retinylic esters; Profile in the study of photo-induced depletion of retinoids (epidermal retinoids): best profile; Epidermal hyperplasia [1]: inducing epidermal hyperplasia; Expression of CD44 and of hyaluronate versus retinoic acid and retinol [1]: more strongly increased; Retinol (keratinocytes A431; agent 2 μM in 1% ethanol): 865 pmol/mg of protein; Retinylic esters (keratinocytes A431; agent 2 μM in 1% ethanol): 280 pmol/mg of protein; Total (keratinocytes A431; agent 2 μM): 1145 pmol/mg of protein
CCCCCCCCCCCCCCCC(=O)OC/C=C(C)/C=C/C=C(C)/C=C/C1=C(C)CCCC1(C)C [ROL-Pal, retinyl palmitate] | 389 pmol/mg of protein | 178 pmol/mg of protein | 567 pmol/mg of protein | less cell retinoids than retinaldehyde | 
Cc1cc(O[C@@H]2O[C@H](CO)[C@@H](O)[C@H](O)[C@H]2O)cc2c1O[C@](C)(CCC[C@H](C)CCC[C@H](C)CCCC(C)C)CC2 [delta-tocopherol-glucopyranoside] |  |  |  |  | Release of delta-tocopherol on enzymatic hydrolysis (glucocerebrosidase): slowly releases delta-tocopherol
CC1=C(/C=C/C(C)=C/C=C/C(C)=C/CO)C(C)(C)CCC1 [retinol, reference compound] |  |  |  |  | Prevention of photo-induced depletion of epidermal retinylic esters / retinoids (epidermal retinoids): prevent photo-induced depletion of epidermal retinylic esters
glycylglycine oleamide [OGG] | <10 pmol/mg of protein | <10 pmol/mg of protein | <10 pmol/mg of protein | significantly increased | 
